Several values for one entry are separate records, joined by “and”; a condition that tells them apart may be missing. Equal values may be shown once.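 Protocol summary: plate cells (96-well), add compound at 5 concentrations, incubate 48 h, interpolate endpoints linearly. The concentration for 50% growth inhibition is given as GI50.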 Activity calls are given as the source filed them. Rule as the data show it: active = GI50 up to about 1.1 µM and inactive = higher.
Legend:
Experiment in all cases: NCI tumour cell line growth inhibition, 48 h
SK-MEL-28 = tested on: SK-MEL-28
XF498 = tested on: XF498
Malme-3M = tested on: Malme-3M
OVCAR-3 = tested on: OVCAR-3
NCI-H522 = tested on: NCI-H522
DLD-1 = tested on: DLD-1
HT-29 = tested on: HT-29
SW-620 = tested on: SW-620
TK-10 = tested on: TK-10
UACC-62 = tested on: UACC-62
M19-MEL = tested on: M19-MEL
SF-295 = tested on: SF-295
CAKI-1 = tested on: CAKI-1
ACHN = tested on: ACHN
EKVX = tested on: EKVX
IGROV-1 = tested on: IGROV-1
NCI-H460 = tested on: NCI-H460
HOP-18 = tested on: HOP-18
SK-MEL-5 = tested on: SK-MEL-5
U-251 = tested on: U-251
SF-268 = tested on: SF-268
A498 = tested on: A498
OVCAR-5 = tested on: OVCAR-5
SK-OV-3 = tested on: SK-OV-3
OVCAR-4 = tested on: OVCAR-4
LXFL 529 = tested on: LXFL 529
SF-539 = tested on: SF-539
NCI-H23 = tested on: NCI-H23
M14 = tested on: M14
RPMI-8226 = tested on: RPMI-8226
OVCAR-8 = tested on: OVCAR-8
SNB-75 = tested on: SNB-75
COLO 205 = tested on: COLO 205
HOP-62 = tested on: HOP-62
KM-20L2 = tested on: KM-20L2
SN12C = tested on: SN12C
RXF 393 = tested on: RXF 393
HL-60 = tested on: HL-60
K562 = tested on: K562
786-0 = tested on: 786-0
LOX IMVI = tested on: LOX IMVI
MOLT-4 = tested on: MOLT-4
CCRF-CEM = tested on: CCRF-CEM
KM12 = tested on: KM12
DMS-273 = tested on: DMS-273
UO-31 = tested on: UO-31
HCC 2998 = tested on: HCC 2998
SNB-19 = tested on: SNB-19
HCT-15 = tested on: HCT-15
SK-MEL-2 = tested on: SK-MEL-2
NCI-H226 = tested on: NCI-H226
A549 = tested on: A549
HOP-92 = tested on: HOP-92
UACC-257 = tested on: UACC-257
SNB-78 = tested on: SNB-78
SR = tested on: SR
HCT-116 = tested on: HCT-116
MCF7 = tested on: MCF7
NCI/ADR-RES = tested on: NCI/ADR-RES
DMS-114 = tested on: DMS-114

In the case of `CC(=O)c1c(O)c(C)c(O)c2c1OC1=CC(=O)C(C(C)=O)C(=O)C12C` (stereo unspecified), the GI50 (SK-MEL-28) is reported as 14.3 µM (inactive) and 17.1 µM (inactive), the GI50 (XF498) is reported as 555 nM (active) and 422 nM (active) and the GI50 (Malme-3M) is reported as 13.1 µM (inactive) and 23.7 µM (inactive).
For `O=C(O)CSc1nnc(-c2ccccc2)[nH]1`, the GI50 (OVCAR-3) was > 100 µM (inactive), the GI50 (NCI-H522) was > 100 µM (inactive) and the GI50 (DLD-1) was > 100 µM (inactive). The GI50 (HT-29) was > 100 µM (inactive), the GI50 (SW-620) was > 100 µM (inactive) and the GI50 (TK-10) was > 100 µM (inactive). The GI50 (UACC-62) was > 100 µM (inactive), the GI50 (M19-MEL) was > 100 µM (inactive) and the GI50 (SF-295) was > 100 µM (inactive). For the same molecule, the GI50 (CAKI-1) was > 100 µM (inactive), the GI50 (ACHN) was > 100 µM (inactive) and the GI50 (EKVX) was > 100 µM (inactive). For the same molecule, the GI50 (IGROV-1) was > 100 µM (inactive), the GI50 (NCI-H460) was > 100 µM (inactive) and the GI50 (HOP-18) was > 100 µM (inactive). For the same molecule, the GI50 (SK-MEL-5) was > 100 µM (inactive), the GI50 (U-251) was > 100 µM (inactive) and the GI50 (SF-268) was > 100 µM (inactive). The GI50 (A498) was > 100 µM (inactive), the GI50 (OVCAR-5) was > 100 µM (inactive) and the GI50 (SK-OV-3) was > 100 µM (inactive). For the same molecule, the GI50 (OVCAR-4) was > 100 µM (inactive), the GI50 (SK-MEL-28) was > 100 µM (inactive) and the GI50 (XF498) was > 100 µM (inactive). The GI50 (LXFL 529) was > 100 µM (inactive), the GI50 (SF-539) was > 100 µM (inactive) and the GI50 (NCI-H23) was > 100 µM (inactive). The GI50 (M14) was > 100 µM (inactive), the GI50 (Malme-3M) was > 100 µM (inactive) and the GI50 (RPMI-8226) was > 100 µM (inactive). For the same molecule, the GI50 (OVCAR-8) was > 100 µM (inactive), the GI50 (SNB-75) was 37.2 µM (inactive) and the GI50 (COLO 205) was > 100 µM (inactive). For the same molecule, the GI50 (HOP-62) was > 100 µM (inactive), the GI50 (KM-20L2) was > 100 µM (inactive) and the GI50 (SN12C) was > 100 µM (inactive). For the same molecule, the GI50 (RXF 393) was > 100 µM (inactive), the GI50 (HL-60) was > 100 µM (inactive) and the GI50 (K562) was > 100 µM (inactive). For the same molecule, the GI50 (786-0) was > 100 µM (inactive), the GI50 (LOX IMVI) was > 100 µM (inactive) and the GI50 (MOLT-4) was > 100 µM (inactive). For the same molecule, the GI50 (CCRF-CEM) was > 100 µM (inactive), the GI50 (KM12) was > 100 µM (inactive) and the GI50 (DMS-273) was > 100 µM (inactive). For the same molecule, the GI50 (UO-31) was > 100 µM (inactive), the GI50 (HCC 2998) was > 100 µM (inactive) and the GI50 (SNB-19) was > 100 µM (inactive). For the same molecule, the GI50 (HCT-15) was > 100 µM, the GI50 (SK-MEL-2) was > 100 µM (inactive) and the GI50 (NCI-H226) was > 100 µM (inactive). The GI50 (A549) was > 100 µM (inactive).
In the case of `C1CCC(OCc2nnn3c2CCC3)OC1` (stereo unspecified), the GI50 (OVCAR-3) is reported as > 100 µM (inactive), the GI50 (NCI-H522) is reported as > 100 µM (inactive) and the GI50 (DLD-1) is reported as > 100 µM (inactive). For the same molecule, the GI50 (HT-29) was > 100 µM (inactive), the GI50 (SW-620) was > 100 µM (inactive) and the GI50 (TK-10) was > 100 µM (inactive). The GI50 (UACC-62) was > 100 µM (inactive), the GI50 (M19-MEL) was > 100 µM (inactive) and the GI50 (SF-295) was > 100 µM (inactive). The GI50 (ACHN) was > 100 µM (inactive), the GI50 (EKVX) was > 100 µM (inactive) and the GI50 (IGROV-1) was > 100 µM (inactive). The GI50 (NCI-H460) was > 100 µM (inactive), the GI50 (HOP-18) was < 0.01 µM (active) and the GI50 (SK-MEL-5) was > 100 µM (inactive). The GI50 (U-251) was > 100 µM (inactive), the GI50 (OVCAR-5) was > 100 µM (inactive) and the GI50 (SK-OV-3) was > 100 µM (inactive). For the same molecule, the GI50 (OVCAR-4) was > 100 µM (inactive), the GI50 (SK-MEL-28) was > 100 µM (inactive) and the GI50 (XF498) was > 100 µM (inactive). The GI50 (LXFL 529) was > 100 µM (inactive), the GI50 (SF-539) was > 100 µM (inactive) and the GI50 (NCI-H23) was > 100 µM (inactive). The GI50 (HOP-92) was > 100 µM (inactive), the GI50 (UACC-257) was > 100 µM (inactive) and the GI50 (M14) was > 100 µM (inactive). The GI50 (Malme-3M) was > 100 µM (inactive), the GI50 (OVCAR-8) was > 100 µM (inactive) and the GI50 (SNB-75) was > 100 µM (inactive). For the same molecule, the GI50 (HOP-62) was > 100 µM (inactive), the GI50 (SNB-78) was > 100 µM (inactive) and the GI50 (KM-20L2) was > 100 µM (inactive). For the same molecule, the GI50 (SN12C) was > 100 µM (inactive), the GI50 (RXF 393) was > 100 µM (inactive) and the GI50 (HL-60) was > 100 µM (inactive). For the same molecule, the GI50 (K562) was > 100 µM (inactive), the GI50 (LOX IMVI) was > 100 µM (inactive) and the GI50 (MOLT-4) was > 100 µM (inactive). For the same molecule, the GI50 (CCRF-CEM) was > 100 µM (inactive), the GI50 (KM12) was > 100 µM (inactive) and the GI50 (UO-31) was > 100 µM (inactive). For the same molecule, the GI50 (HCC 2998) was > 100 µM (inactive), the GI50 (HCT-15) was > 100 µM and the GI50 (SK-MEL-2) was > 100 µM (inactive). For the same molecule, the GI50 (A549) was > 100 µM (inactive), the GI50 (SR) was > 100 µM (inactive) and the GI50 (HCT-116) was > 100 µM (inactive).
In the case of `C=CC(=O)NC(=N)NC#N`, the GI50 (OVCAR-3) is reported as 169 µM (inactive), the GI50 (NCI-H522) is reported as 18 µM (inactive) and the GI50 (DLD-1) is reported as 153 µM (inactive). For the same molecule, the GI50 (HT-29) was 189 µM (inactive), the GI50 (SW-620) was > 76.2 µM (inactive) and the GI50 (TK-10) was 142 µM (inactive). For the same molecule, the GI50 (UACC-62) was 157 µM (inactive), the GI50 (M19-MEL) was 140 µM (inactive) and the GI50 (SF-295) was 313 µM (inactive). For the same molecule, the GI50 (CAKI-1) was 69 µM (inactive), the GI50 (MCF7) was > 68.7 µM (inactive) and the GI50 (ACHN) was 121 µM (inactive). For the same molecule, the GI50 (EKVX) was > 100 µM (inactive), the GI50 (IGROV-1) was 181 µM (inactive) and the GI50 (NCI-H460) was 176 µM (inactive). For the same molecule, the GI50 (HOP-18) was 148 µM (inactive), the GI50 (SK-MEL-5) was 165 µM (inactive) and the GI50 (U-251) was 158 µM (inactive). The GI50 (SF-268) was 121 µM (inactive), the GI50 (A498) was 152 µM (inactive) and the GI50 (OVCAR-5) was 177 µM (inactive). The GI50 (SK-OV-3) was 175 µM (inactive), the GI50 (OVCAR-4) was 168 µM (inactive) and the GI50 (SK-MEL-28) was 131 µM (inactive). The GI50 (XF498) was 97.3 µM (inactive), the GI50 (LXFL 529) was 124 µM (inactive) and the GI50 (SF-539) was 164 µM (inactive). The GI50 (NCI-H23) was 188 µM (inactive), the GI50 (HOP-92) was > 39.4 µM (inactive) and the GI50 (UACC-257) was 125 µM (inactive). The GI50 (M14) was 151 µM (inactive), the GI50 (Malme-3M) was 145 µM (inactive) and the GI50 (RPMI-8226) was 22 µM (inactive). The GI50 (OVCAR-8) was 214 µM (inactive), the GI50 (SNB-75) was 155 µM (inactive) and the GI50 (COLO 205) was 149 µM (inactive). For the same molecule, the GI50 (HOP-62) was 210 µM (inactive), the GI50 (NCI/ADR-RES) was > 100 µM (inactive) and the GI50 (SNB-78) was 179 µM (inactive). The GI50 (KM-20L2) was 150 µM (inactive), the GI50 (SN12C) was 157 µM (inactive) and the GI50 (RXF 393) was > 73.5 µM (inactive). The GI50 (HL-60) was 26.9 µM (inactive), the GI50 (K562) was 35.9 µM (inactive) and the GI50 (786-0) was 163 µM (inactive). For the same molecule, the GI50 (LOX IMVI) was > 74.6 µM (inactive), the GI50 (CCRF-CEM) was 22.6 µM (inactive) and the GI50 (KM12) was > 100 µM (inactive). For the same molecule, the GI50 (UO-31) was 176 µM (inactive), the GI50 (HCC 2998) was 182 µM (inactive) and the GI50 (SNB-19) was 363 µM (inactive). For the same molecule, the GI50 (HCT-15) was 120 µM, the GI50 (SK-MEL-2) was > 100 µM (inactive) and the GI50 (NCI-H226) was 200 µM (inactive). The GI50 (A549) was 195 µM (inactive), the GI50 (SR) was 150 µM (inactive) and the GI50 (HCT-116) was 189 µM (inactive). The GI50 (DMS-114) was 114 µM (inactive).
